Tests used:
[1] = system: DNTs; assay: Ex vivo DNT expansion in increasing concentrations of Ide; type: cell-based, human
Protocol: DNT was obtained and expanded as previously reported in the presence or absence of Ide (Selleckchem). Briefly, blood from healthy donor was collected in sodium heparin containing vacutainers (Becton, Dickinson and Company). Then, CD4^+ and CD8^+ T cells were depleted from healthy donor-derived PBMCs by incubating whole blood with RosetteSep human CD4 and CD8 depletion cocktail (StemCell Technologies) followed by density gradient centrifugation to collect CD4 and CD8 depleted buffy coats.

[2] = system: DNTs; assay: Memory status of ex vivo expanded DNTs (CD45RA, CD62L flow cytometry); type: cell-based, human; settings: end of expansion (day 17)
Description: (FIG. 6A) Representative flow plots showing memory status. […] Tnaive/SCM=CD45RA^+CD62L^+; TCM=CD45RA^−CD62L^+; TEM=CD45RA^−CD62L; Teffector=CD45RA^+CD62L^−. (FIG. 6B) Frequency of DNTs in early memory subset TCM/SCM (CD45RA^+/CD62L^+ and CD45RA^−CD62L^+; left), TEM (CD45RA^−CD62L^−; middle) and TEFF (CD45RA^+CD62L^−; right) from day 7 to day 17 of ex vivo DNT expansion culture. […] Each dot represents DNTs from one donor. The cell number is normalized to day 0 DNT number. […] The expression shown is relative to the expression of housekeeping gene, HPRT. Each paired symbols represent DNTs from one donor. […] Expansion fold relative to the number of DNTs at the start of co-culture was determined after 2 days and 8 days (Left). Absolute number of viable DNTs from each treatment group after co-culture with OCI-AML3 (Right). […] (FIG. 6F) Memory status of DNTs 8 days post co-culture with OCI-AML3 determined by flow-cytometry. […]

[3] = system: DNTs; assay: Exhaustion marker expression on DNTs (flow cytometry); type: cell-based, human
Description: FIGS. 7A-7G. […] Representative flow plot is shown (Left). The numbers represent the MFI value (Right). […] Horizontal bars represent the mean relative MFI and error bars show SEM. (FIG. 7C) Expression of exhaustion associated transcription factor gene, TOX, relative to the expression of housekeeping gene, HPRT, determined by qPCR. Each paired symbol represents DNTs from one individual. […] Subsequently, cells were intracellularly stained with anti-TNFα and anti-IFNγ antibodies, and the expression levels were determined by flow cytometry. Representative flow plot is shown (Left). The numbers represent the frequency in each gate. […] The result shown is a summary of three experiments. (FIG. 7E) Frequency of viable ctrl-DNTs and Ide-DNTs on day 17 of expansion. The cell viability was determined with Annexin V and 7-AAD staining using flow cytometry. […] (FIG. 7F) Viability of ctrl-DNTs and Ide-DNTs after co-culture with primary AML cells from 7 different patients. […]
The following antibodies were used in this study: CD4-FITC or -APCcy7, CD56-PE, CD3-PEcy7 or -Alexa Flour700, CD8-APC or -APCcy7, CD45RA-FITC, CD95-APC, CD62L-PEcy7, CTLA4-PE, LAG3-PEcy7, TIM3-APC, CD45-FITC or -APCcy7, CD34-PE, CD33-APC, AnnexinV-Pacific Blue or -FITC, 7AAD, IFNy-PE, TNFα-APC and DAPI. […] Data were obtained using Attune NXT flow Cytometer (ThermoFisher) and analyzed with Flowjo software (Tree Star, Inc.).

[4] = system: DNTs; assay: DNT viability (Annexin V, 7-AAD flow cytometry); type: cell-based, human; settings: 5 healthy donors, day 17
Protocol: The result shown is a summary of three experiments. […] The cell viability was determined with Annexin V and 7-AAD staining using flow cytometry. […] Subsequently, the viability of DNTs (gated on CD45^high CD3^+CD33/CD34^−) were determined using flow cytometry. […] Each paired symbol represents DNTs from one donor.
and viability of effector cells was calculated by 100-% AnnexinV^+ in cultures of DNTs with AML.

[5] = system: DNTs; assay: CD69 expression on ex vivo expanded DNTs; type: cell-based, human; settings: 0, 1 and 5 μM Ide; day 7, 10 and 17
Protocol: Frequency of CD69 expression from day 7, 10 and 17 ex vivo expanded DNTs in 0, 1 and 5 μM of de.

[6] = autoimmune toxicities, infection, diarrhea, skin problems; cited from earlier work
[7] = system: DNTs; assay: Effect of JQ1 on memory status of DNTs (flow cytometry of CD27, CD62L, CD45RA); type: cell-based, human; settings: JQ1 0.075, 0.15, 0.30 μM for 20 days; day 14, 17 and 20 of DNT expansion
Description: JQ1 was given to the culture on day 0, 3, 7, 10, 14, and 17.

[8] = system: conventional T cells; settings: Kagoya et al. 2016; cited from earlier work

expression of inhibitory receptor Lag3 on DNTs compared to ctrl-DNTs [3]	expression of inhibitory receptor Tim3 on DNTs compared to ctrl-DNTs [3]	Compound	DNT viability at the end of cell expansion cultures ([1]; 1 μM Ide)	cell yield at the end of expansion compared to vehicle control ([1]; 0.1-1.0 μM Ide)	DNT expansion ([1]; 3.0-10.0 μM of Ide)	TCM/TSCM cell number, fold higher compared to ctrl-DNTs [2]	viability of DNTs after expansion [4]	CD69 expression (DNT activation signal) [5]	adverse events associated with Ide-treatment [6]	memory formation of DNTs across treatment groups [7]	inducing memory phenotype on conventional T cells [8]
reduced the expression	reduced the expression	CC[C@H](Nc1ncnc2[nH]cnc12)c1nc2cccc(F)c2c(=O)n1-c1ccccc1 [Ide, 5-fluoro-3-phenyl-2-[(1S)-1-(7H-purin-6-ylamino)propyl]quinazolin-4-one]	highest DNT viability	improved cell yield	compromised	3.87±0.82 fold	significantly improved the viability	reduced levels of CD69 expression in a dose-dependent manner	severe adverse events		
		Cc1sc2c(c1C)C(c1ccc(Cl)cc1)=N[C@@H](CC(=O)OC(C)(C)C)c1nnc(C)n1-2 [JQ1]								no biologically meaningful differences	top hit amongst 31 chemicals tested

From patent US20260265691A1, “METHODS TO IMPROVE THE PERSISTENCE OF DOUBLE NEGATIVE T CELLS” (priority 2022, published 2026)
